These results are taken from ChEMBL document CHEMBL1201862, “PubChem BioAssay data set” (2004).

Data set [1] in a line: luciferase reporter signal suppression in cells – H4 neuroglioma cells, luminescence, dose response (AID 1990). Format: functional, cell-based. A general note: Reporter assays use an easily measured gene product as a stand-in for the process of interest.
For data set [2], the target named is Nucleotide-binding oligomerization domain-containing protein 2 (Homo sapiens, UniProt Q9HC29). Nature of the data set: inhibition of NOD2-driven NF-kB reporter – cell-based, luminescence, uHTS, HEK293 (AID 1566). The data set is classed as functional.
Data set [3] addresses T1, Histone-lysine N-methyltransferase NSD2 (Homo sapiens, UniProt O96028).
T1 sequence (O96028 whole entry): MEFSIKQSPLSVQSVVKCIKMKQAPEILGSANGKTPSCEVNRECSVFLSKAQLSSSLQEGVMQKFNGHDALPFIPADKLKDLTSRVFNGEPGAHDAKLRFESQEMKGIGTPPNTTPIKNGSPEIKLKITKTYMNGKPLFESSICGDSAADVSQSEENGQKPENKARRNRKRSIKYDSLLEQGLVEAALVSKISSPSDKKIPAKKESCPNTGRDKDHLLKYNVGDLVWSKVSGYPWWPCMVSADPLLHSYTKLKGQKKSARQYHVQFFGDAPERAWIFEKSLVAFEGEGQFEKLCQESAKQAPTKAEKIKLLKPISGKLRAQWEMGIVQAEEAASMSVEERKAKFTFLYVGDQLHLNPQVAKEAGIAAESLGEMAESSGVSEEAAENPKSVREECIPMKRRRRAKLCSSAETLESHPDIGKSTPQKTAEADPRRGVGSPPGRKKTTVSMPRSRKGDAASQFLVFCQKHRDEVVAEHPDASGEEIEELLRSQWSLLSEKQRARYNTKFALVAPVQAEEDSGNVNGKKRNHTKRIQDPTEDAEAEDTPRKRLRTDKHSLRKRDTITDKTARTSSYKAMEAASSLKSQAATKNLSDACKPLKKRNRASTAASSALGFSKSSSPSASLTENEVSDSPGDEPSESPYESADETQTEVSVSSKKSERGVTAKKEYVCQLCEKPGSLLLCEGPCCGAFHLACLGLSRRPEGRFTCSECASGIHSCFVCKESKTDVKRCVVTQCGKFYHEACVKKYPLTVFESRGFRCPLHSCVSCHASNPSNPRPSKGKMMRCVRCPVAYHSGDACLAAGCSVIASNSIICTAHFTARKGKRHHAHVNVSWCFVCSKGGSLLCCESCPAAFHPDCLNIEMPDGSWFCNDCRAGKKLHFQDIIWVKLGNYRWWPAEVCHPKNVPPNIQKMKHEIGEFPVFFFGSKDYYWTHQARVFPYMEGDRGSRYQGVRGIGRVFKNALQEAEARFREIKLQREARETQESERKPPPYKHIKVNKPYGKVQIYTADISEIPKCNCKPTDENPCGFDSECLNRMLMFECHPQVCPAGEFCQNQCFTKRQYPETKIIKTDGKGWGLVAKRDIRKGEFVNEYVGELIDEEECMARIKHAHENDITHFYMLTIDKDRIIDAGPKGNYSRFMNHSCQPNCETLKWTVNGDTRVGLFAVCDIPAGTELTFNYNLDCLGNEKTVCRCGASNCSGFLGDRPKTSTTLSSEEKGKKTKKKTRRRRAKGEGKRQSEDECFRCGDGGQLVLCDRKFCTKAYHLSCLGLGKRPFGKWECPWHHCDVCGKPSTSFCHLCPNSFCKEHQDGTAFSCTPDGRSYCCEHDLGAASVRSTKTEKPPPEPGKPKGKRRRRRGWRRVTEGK
The data set is classed as biochemical.

For data set [4], the target named is Testis-specific serine/threonine-protein kinase 2 (Homo sapiens, UniProt Q96PF2). Format: functional.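 Note: part of the Navigating the Kinome panel, target entry STK22B.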
Data set [5] concerns the target Serine/threonine-protein kinase pim-1 (Homo sapiens, UniProt P11309). The data set is classed as functional.
The target in data set [6] is Mast/stem cell growth factor receptor Kit (Homo sapiens, UniProt P10721). Format: functional.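 Note: KIT entry within a kinase panel assay.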
Data set [7] addresses Receptor tyrosine-protein kinase erbB-2 (Homo sapiens, UniProt P04626). Description: Navigating the Kinome. Panel member name: ERBB2. Format: functional.
The target in data set [8] is Protein kinase C iota type (Homo sapiens, UniProt P41743). Format: functional.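 Note: measured within a kinome-wide kinase panel, PRKCI as panel member.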
Data set [9] concerns the target Leucine-rich repeat serine/threonine-protein kinase 2 (Homo sapiens, UniProt Q5S007). The data set is classed as functional.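 Note: value from a broad kinome-wide panel profiling study in which LRRK2 was one of the kinases tested.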
Another data set addresses Aurora kinase B (Homo sapiens, UniProt Q96GD4). The data set is classed as functional.
For data set [10], the target named is Cyclin-dependent kinase 1 (Homo sapiens, UniProt P06493). Format: functional.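 Note: Kinome-wide panel profiling, with the target listed as panel member CDC2.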
Data set [11] addresses 3-phosphoinositide-dependent protein kinase 1 (Homo sapiens, UniProt O15530). Format: functional.
Data set [12] addresses Receptor tyrosine-protein kinase erbB-4 (Homo sapiens, UniProt Q15303). The data set is classed as functional.
The target of another data set is Cytochrome P450 2D6 (Homo sapiens, UniProt P10635).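 Note: CYP2D6 member of a cytochrome P450 panel assay.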

Active and inactive are the calls of the source.

Sequence of Cytochrome P450 2D6 (P10635 whole entry): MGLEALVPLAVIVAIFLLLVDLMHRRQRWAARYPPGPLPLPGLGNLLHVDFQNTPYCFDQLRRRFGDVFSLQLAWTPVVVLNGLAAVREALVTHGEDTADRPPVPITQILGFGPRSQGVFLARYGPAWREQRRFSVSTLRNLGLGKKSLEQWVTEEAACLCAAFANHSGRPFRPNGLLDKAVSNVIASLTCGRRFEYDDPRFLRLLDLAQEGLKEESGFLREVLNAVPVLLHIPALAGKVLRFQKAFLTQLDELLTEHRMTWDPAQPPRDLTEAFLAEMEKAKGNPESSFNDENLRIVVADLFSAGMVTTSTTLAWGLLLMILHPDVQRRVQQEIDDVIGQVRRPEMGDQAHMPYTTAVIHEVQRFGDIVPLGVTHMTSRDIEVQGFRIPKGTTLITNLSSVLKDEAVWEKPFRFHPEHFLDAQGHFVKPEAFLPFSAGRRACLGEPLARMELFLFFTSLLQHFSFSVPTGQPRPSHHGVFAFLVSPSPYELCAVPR
Sequence of Testis-specific serine/threonine-protein kinase 2 (Q96PF2 whole entry): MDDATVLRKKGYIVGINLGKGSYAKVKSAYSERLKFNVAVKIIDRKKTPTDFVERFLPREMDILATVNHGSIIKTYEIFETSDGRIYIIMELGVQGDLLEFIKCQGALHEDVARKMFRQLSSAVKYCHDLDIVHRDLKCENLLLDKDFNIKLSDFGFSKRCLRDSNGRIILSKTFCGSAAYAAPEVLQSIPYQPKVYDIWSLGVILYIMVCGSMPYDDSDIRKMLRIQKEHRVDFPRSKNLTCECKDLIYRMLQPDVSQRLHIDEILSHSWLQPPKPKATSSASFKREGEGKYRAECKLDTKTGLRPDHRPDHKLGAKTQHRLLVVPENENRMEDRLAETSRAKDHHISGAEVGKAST
Sequence of Aurora kinase B (Q96GD4 whole entry): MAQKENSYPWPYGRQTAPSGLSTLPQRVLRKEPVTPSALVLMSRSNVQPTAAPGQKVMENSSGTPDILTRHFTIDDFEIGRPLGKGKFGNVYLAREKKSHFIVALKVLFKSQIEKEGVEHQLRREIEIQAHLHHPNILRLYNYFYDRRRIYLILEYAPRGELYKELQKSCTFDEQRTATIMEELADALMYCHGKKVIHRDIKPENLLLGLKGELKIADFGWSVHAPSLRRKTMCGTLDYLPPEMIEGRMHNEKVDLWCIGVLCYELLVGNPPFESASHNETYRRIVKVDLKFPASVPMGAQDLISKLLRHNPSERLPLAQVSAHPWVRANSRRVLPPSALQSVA
Sequence of Nucleotide-binding oligomerization domain-containing protein 2 (Q9HC29 whole entry, the tested form may be a part): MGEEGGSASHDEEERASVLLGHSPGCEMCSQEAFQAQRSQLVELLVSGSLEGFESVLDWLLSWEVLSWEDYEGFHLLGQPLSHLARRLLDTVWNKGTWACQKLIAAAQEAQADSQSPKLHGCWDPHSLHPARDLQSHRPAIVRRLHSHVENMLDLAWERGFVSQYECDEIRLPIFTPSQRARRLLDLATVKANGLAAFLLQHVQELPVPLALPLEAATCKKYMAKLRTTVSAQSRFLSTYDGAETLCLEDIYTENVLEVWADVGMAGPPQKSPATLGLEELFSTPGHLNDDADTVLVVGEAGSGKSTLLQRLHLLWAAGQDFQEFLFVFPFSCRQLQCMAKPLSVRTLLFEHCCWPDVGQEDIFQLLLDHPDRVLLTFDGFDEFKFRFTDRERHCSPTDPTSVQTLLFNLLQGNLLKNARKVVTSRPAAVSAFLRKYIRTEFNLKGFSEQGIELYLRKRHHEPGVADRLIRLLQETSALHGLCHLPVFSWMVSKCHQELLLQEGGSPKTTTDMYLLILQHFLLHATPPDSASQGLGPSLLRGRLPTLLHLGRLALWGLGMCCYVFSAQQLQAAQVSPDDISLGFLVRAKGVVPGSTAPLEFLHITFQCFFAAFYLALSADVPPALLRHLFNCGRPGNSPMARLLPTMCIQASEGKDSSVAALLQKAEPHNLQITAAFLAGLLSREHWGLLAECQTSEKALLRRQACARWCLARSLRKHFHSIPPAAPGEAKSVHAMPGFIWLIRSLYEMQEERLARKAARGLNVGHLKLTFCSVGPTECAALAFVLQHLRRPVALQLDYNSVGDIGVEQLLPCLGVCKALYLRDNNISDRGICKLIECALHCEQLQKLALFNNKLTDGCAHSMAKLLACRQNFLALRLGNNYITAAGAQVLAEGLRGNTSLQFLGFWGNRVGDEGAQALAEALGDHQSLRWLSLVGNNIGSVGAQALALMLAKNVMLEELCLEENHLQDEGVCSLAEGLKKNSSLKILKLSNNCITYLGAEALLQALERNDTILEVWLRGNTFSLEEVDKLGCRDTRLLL
Sequence of Serine/threonine-protein kinase pim-1 (P11309 whole entry): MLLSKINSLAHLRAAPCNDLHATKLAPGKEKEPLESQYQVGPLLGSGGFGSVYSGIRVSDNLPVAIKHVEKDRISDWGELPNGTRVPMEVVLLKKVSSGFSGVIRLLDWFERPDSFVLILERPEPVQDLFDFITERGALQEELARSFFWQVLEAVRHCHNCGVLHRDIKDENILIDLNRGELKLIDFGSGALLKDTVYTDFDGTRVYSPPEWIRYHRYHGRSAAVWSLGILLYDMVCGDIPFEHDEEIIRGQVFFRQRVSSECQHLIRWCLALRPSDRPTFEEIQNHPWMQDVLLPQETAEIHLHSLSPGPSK
Sequence of Cyclin-dependent kinase 1 (P06493 whole entry): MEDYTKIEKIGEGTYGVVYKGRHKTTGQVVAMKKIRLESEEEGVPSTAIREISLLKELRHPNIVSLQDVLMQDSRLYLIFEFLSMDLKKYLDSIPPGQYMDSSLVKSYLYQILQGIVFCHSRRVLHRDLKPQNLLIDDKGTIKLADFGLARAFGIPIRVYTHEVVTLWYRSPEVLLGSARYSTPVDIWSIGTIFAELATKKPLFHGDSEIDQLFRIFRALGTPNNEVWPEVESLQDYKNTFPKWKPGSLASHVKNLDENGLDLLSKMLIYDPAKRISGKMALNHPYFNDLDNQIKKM
Sequence of Receptor tyrosine-protein kinase erbB-4 (Q15303 whole entry): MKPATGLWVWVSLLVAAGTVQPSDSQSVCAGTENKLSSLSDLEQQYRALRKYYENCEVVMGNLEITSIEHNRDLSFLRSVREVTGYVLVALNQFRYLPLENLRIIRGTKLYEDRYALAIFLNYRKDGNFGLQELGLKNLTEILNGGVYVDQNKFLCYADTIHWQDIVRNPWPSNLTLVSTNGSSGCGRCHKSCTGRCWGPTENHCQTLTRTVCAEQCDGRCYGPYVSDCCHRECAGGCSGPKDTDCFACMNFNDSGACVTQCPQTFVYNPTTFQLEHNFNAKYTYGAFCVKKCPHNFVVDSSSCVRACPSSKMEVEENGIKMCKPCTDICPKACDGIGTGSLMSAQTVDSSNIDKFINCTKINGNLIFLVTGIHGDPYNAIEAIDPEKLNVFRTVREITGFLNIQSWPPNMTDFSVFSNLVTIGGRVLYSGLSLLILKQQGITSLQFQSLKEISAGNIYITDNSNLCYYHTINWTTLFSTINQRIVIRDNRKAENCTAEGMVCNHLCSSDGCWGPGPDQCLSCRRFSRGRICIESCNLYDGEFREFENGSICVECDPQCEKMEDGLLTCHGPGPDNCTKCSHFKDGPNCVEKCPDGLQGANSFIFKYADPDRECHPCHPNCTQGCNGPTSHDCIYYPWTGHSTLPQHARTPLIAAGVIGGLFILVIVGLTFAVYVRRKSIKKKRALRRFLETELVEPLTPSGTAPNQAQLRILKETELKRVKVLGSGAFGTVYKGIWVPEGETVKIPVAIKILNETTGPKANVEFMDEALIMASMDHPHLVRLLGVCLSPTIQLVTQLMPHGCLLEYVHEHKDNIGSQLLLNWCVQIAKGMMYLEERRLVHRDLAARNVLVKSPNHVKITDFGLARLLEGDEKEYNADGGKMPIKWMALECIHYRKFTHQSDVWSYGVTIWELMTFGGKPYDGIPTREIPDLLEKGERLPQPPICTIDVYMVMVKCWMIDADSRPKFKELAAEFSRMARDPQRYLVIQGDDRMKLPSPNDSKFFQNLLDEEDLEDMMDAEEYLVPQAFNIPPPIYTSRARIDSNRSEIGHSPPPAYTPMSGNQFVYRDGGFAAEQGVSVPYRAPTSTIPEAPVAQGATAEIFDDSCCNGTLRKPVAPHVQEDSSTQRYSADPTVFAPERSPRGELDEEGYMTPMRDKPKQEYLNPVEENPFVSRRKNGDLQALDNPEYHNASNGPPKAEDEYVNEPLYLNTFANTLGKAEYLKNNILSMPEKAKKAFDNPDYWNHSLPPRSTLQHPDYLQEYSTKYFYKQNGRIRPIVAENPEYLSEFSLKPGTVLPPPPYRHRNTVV
Sequence of Protein kinase C iota type (P41743 whole entry): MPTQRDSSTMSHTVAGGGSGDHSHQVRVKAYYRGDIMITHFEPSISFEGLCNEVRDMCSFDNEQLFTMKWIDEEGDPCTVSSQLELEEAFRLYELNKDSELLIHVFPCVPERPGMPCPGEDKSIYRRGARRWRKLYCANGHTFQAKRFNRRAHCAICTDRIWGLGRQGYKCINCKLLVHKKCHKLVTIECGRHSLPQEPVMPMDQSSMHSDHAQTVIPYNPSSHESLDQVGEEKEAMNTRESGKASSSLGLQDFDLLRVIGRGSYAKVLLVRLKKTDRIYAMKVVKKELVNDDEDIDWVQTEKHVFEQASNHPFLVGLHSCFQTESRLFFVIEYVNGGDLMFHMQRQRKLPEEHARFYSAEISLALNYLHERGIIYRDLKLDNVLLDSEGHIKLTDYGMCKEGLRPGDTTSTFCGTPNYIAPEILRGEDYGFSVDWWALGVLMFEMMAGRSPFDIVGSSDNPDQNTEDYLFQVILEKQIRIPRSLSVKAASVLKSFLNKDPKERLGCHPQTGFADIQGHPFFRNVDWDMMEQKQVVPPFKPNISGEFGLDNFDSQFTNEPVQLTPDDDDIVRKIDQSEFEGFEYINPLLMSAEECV

The term EC50 denotes the concentration that produces a half-maximal response. The term AC50 denotes the concentration at which the activity in the assay is half-maximal. As for `O=C1C=C(N2CCOCC2)c2ccccc2C1=O`, the results for the EC50 in [1] and in data set [2] were 8.37 µM (active) and 13.3 µM (active), respectively. Further, the AC50 in [3] was 1.38 µM (active).

By Ki is commonly meant a dissociation constant, usually derived from enzyme kinetics or from competition with a known ligand. `N#Cc1ccc2[nH]c(O)c(-c3ccc(CN4CCOCC4)cn3)c2c1` [AZD-1080]: the Ki is > 1.58 µM (inactive) in [4]; > 5.01 µM (inactive) in data set [5]; > 1.26 µM (inactive) in data set [6]; > 1.58 µM (inactive) in data set [7]; > 5.01 µM (inactive) in data set [8]; > 2.51 µM (inactive) in data set [9]. In addition, the Ki was > 3.16 µM (inactive) at Aurora kinase B, 2 µM (active) in data set [10], > 3.98 µM (inactive) in data set [11] and > 3.98 µM (inactive) in data set [12].

`CCc1oc2ccccc2c1C(=O)c1cc(Br)c(O)c(Br)c1` [BENZBROMARONE]: the AC50 entry on Cytochrome P450 2D6 is “inactive”.
